In patent US20220144812A1, “QUINOLINE DERIVATIVES AND THEIR USE FOR THE TREATMENT OF CANCER” (Epizyme, Inc., priority 2019, published 2022):

Legend:
[1] = system: H3K18Ac in HB-CLS-2 cells; assay: H3K18AC in-cell western (ICW) assay; assay type: cell-based; conditions: H3K18Ac in-cell western; read-out: CREBBP ICW IC50
Outline: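 In-cell western: after methanol fixation, blocking, overnight 4° C anti-H3K18Ac staining, then 800CW secondary plus DRAQ5 for DNA content, integrated intensities were scanned at 800 and 700 nm. Before this, compound exposure lasted 2 hr at 37° C in HB-CLS-2 cells plated 16–24 hours earlier. Values expressed as IC50 (μM).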

647V cells = assay: High throughput proliferation (HTP) assay; assay type: cell-based; conditions: Homo sapiens, 647-V, high throughput proliferation; read-out: CREBBP HTP IC50
Outline: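 Proliferation IC50 (micromolar) derived from a 7-day CellTiter-Glo viable-cell readout in 647V cells exposed, in triplicate, to rising compound concentrations; cells grown in DMEM plus 15% heat-inactivated FBS at 37° C under 5% CO2.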

CREBBP (1084-1701) = target: T1, CREBBP (1084-1701) (Homo sapiens, UniProt Q92793); assay: Biochemical assay for CREBBP (1084-1701), SAMDI; conditions: SAMDI, read-out: CREBBP Biochemistry IC50
T1 construct: measured in the following biochemical assay using CREBBP (1084-1701); purchased
Outline: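 Acetyltransferase activity measured by SAMDI mass spectrometry after capture on biochip. Enzyme sat with compound 30 min at RT before acetyl-CoA and biotinylated H3 11-25 (K14R, K23R) peptide were added for 30 min at RT. Formic acid quench, bicarbonate neutralisation; IC50 values reported.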

EP300 (P300(1048-1664)) = target: T2, EP300 (P300(1048-1664)) (Homo sapiens, UniProt Q09472); assay: Biochemical assay for EP300, SAMDI; conditions: EP300, SAMDI; read-out: EP300 Biochemistry IC50
T2 construct: P300(1048-1664)
T2 sequence (Q09472 1048-1664): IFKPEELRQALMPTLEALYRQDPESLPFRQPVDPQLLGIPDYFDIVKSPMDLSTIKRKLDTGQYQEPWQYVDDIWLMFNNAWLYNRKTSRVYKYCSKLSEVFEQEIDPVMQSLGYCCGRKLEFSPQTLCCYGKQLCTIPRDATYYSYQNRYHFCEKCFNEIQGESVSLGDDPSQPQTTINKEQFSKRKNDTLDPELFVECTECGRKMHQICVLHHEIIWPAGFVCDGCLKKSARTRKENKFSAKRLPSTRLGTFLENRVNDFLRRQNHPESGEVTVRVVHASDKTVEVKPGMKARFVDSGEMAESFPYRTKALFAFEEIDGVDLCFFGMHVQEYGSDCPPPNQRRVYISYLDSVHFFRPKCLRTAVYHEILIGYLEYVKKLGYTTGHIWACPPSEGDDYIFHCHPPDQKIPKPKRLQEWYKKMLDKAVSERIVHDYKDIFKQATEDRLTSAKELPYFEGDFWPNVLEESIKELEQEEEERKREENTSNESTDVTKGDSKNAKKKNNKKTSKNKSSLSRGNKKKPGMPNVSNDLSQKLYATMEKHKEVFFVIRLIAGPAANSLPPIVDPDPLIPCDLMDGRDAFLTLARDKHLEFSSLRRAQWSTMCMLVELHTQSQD
From the text: The following example describes materials and methods relating to a biochemical assay for EP300. IC50 values (micromolar (μM)) are summarized in Table 1, Table 2, and Table 3 under the column labeled: “EP300 Biochemistry IC50 (micromolar).”

T1 sequence (Q92793 1084-1701): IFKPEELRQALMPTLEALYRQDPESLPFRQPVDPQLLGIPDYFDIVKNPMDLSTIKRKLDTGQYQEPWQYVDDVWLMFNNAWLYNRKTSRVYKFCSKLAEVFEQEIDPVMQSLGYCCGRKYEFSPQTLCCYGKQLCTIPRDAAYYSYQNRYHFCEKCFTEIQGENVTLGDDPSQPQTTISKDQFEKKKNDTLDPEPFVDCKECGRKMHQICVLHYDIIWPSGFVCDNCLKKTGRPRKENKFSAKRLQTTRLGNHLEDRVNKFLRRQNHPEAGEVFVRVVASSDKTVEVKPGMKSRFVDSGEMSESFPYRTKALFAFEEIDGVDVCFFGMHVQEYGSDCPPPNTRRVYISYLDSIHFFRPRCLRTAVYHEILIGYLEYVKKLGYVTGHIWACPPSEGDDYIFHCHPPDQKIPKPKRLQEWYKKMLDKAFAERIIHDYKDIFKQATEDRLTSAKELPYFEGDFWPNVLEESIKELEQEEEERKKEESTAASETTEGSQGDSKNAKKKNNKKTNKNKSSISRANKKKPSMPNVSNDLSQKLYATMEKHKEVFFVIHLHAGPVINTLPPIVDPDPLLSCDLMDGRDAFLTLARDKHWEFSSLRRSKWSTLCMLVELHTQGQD

SMILES	IC50 [1] [nM]	IC50 (CREBBP (1084-1701)) [nM]	IC50 (EP300 (P300(1048-1664))) [nM]	IC50 (647V cells) [nM]
CCc1ncc(CN(C)C(=O)c2nc(-c3cc(N)c4c[nH]nc4c3)nc3ccc(Cl)cc23)n1C [Compound 546]	113	13.7	33.7	96.4
CCn1ncc(CN(C)C(=O)c2cc(-c3cc(NC4CNC4)cc(C)n3)nc3ccc(Cl)cc23)c1C [Compound 547]	550	23.8	12.5	105
CCc1onc(CN(C)C(=O)c2cc(-c3ccc(NCCNC)c(C)n3)nc3ccc(Cl)cc23)c1C [Compound 548]	2150	2020	2160	1860
CCc1ncc(CN(C)C(=O)c2cc(-c3ccc(NC4CN(C(C)=O)C4)c(C)n3)nc3ccc(Cl)cc23)n1C [Compound 549]	240	34.9	12.4	150
CCn1ncc(CN(C)C(=O)c2cc(-c3ccc(NCCNC)c(C)n3)nc3ccc(Cl)cc23)c1C1CC1 [Compound 553]	466	52.5	535	763
CCn1ncc(CN(C)C(=O)c2nc(-c3cc(C)cc(NC4CNCC4(F)F)c3)nc3ccc(Cl)cc23)c1C (stereo not shown) [Compound 554]	1070	53.5	173	1670
CCn1ncc(CN(C)C(=O)c2cc(-c3nn(C)c(C(=O)NC)c3C)nc3ccc(Cl)cc23)c1C [Compound 556]	20000	≥ 50000	≥ 50000	6290
CCn1ncc(CN(C)C(=O)c2nc(-c3ccc4n[nH]c(NC)c4c3)nc3ccc(Cl)cc23)c1C [Compound 558]	39.3	4.27	1.5	76.3
CCc1ncc(CN(C)C(=O)c2nc(-c3cc4c(NC)n[nH]c4cc3C)nc3ccc(Cl)cc23)n1C [Compound 563]	55.4	13.5	5.7	37.5
CNCCNc1ccc(-c2cc(C(=O)N(C)Cc3cn[nH]c3C)c3cc(Cl)ccc3n2)nc1C [Compound 564]	20000	≥ 50000	≥ 50000	9530
CCc1ncc(CN(C)C(=O)c2cc(-c3cc(NCCNC)cc(OC)n3)nc3ccc(Cl)cc23)n1C [Compound 567]	77.9	79.7	22.2	32
CCn1ncc(CN(C)C(=O)c2cc(-c3ccc(NCCOC)c(C)n3)nc3ccc(Cl)cc23)c1C [Compound 568]	127	23.6	31.1	260
CCc1ncc(CN(C)C(=O)c2cc(-c3ccc(NCC(O)CNC)c(C)n3)nc3ccc(Cl)cc23)n1C (stereo not shown) [Compound 571]	428	25.4	11.1	118
CCc1ncc(CN(C)C(=O)c2cc(-c3ccc(N(C)C4CN(C)C4)c(C)n3)nc3ccc(Cl)cc23)n1C [Compound 572]	197	116	23.3	133
CCc1nc(-c2cc(C(=O)N(C)Cc3cnn(CC)c3C)c3cc(Cl)ccc3n2)ccc1NCCN(C)C [Compound 573]	52.7	46.5	45.4	49.3

Further compounds by falling IC50 [1], results first:

IC50 [1] [nM]	IC50 (CREBBP (1084-1701)) [nM]	IC50 (EP300 (P300(1048-1664))) [nM]	SMILES	IC50 (647V cells) [nM]
18400	14100	5200	CCn1nc(C)c(CN(C)C(=O)c2cc(-c3ccc(NCCNC)c(C)n3)nc3ccc(Cl)cc23)c1C [Compound 557]	6800
6820	8540	8960	CNCCNc1ccc(-c2cc(C(=O)N(C)Cc3cncn3C)c3cc(Cl)ccc3n2)nc1C [Compound 543]	2260
1520	3380	3870	CCc1noc(CN(C)C(=O)c2cc(-c3ccc(NCCNC)c(C)n3)nc3ccc(Cl)cc23)n1 [Compound 575]	1530
838	593	2050	CCn1ncc(CN(C)C(=O)c2cc(-c3ccc(NCCNC)c(C)n3)nc3ccc(Cl)cc23)c1COC [Compound 559]	1240
816	37.5	11.3	CCc1ncc(CN(C)C(=O)c2nc(-c3cc(C)cc(NC4CNC4)c3)nc3ccc(Cl)cc23)n1C [Compound 566]	338
513	3320	1430	CCn1ncc(CN(C)C(=O)c2nc(-c3cnc4c[nH]nc4c3)nc3ccc(Cl)cc23)c1C [Compound 581]	839
242	142	412	CCc1ncc(CN(C)C(=O)c2cc(-c3ccc(NCCNC)c(C)n3)nc3ccc(Cl)cc23)o1 [Compound 560]	448
226	22.8	7.1	CCc1ncc(CN(C)C(=O)c2nc(-c3cc(Cl)cc(NCCNC)c3)nc3ccc(Cl)cc23)n1C [Compound 555]	102
176	65.9	43.9	CCc1nc(-c2cc(C(=O)N(C)Cc3cnc(CC)n3C)c3cc(COC)ccc3n2)ccc1NCCN(C)C [Compound 580]	130
154	49.4	14.9	CCn1ncc(CN(C)C(=O)c2nc(-c3cc4c(NC)n[nH]c4cc3C)nc3ccc(Br)cc23)c1C [Compound 562]	87.9
153	51.1	33.8	CCc1ncc(CN(C)C(=O)c2cc(-c3ccc(NCCNC)c(F)n3)nc3ccc(Cl)cc23)n1C [Compound 565]	193
153	27	137	CCn1ncc(CN(C)C(=O)c2nc(-c3cc(NC)c4cn[nH]c4c3)nc3ccc(Cl)cc23)c1C [Compound 551]	233
149	47.9	16.9	CCc1ncc(CN(C)C(=O)c2nc(-c3cc(C)nc(NCCNC)c3)nc3ccc(Cl)cc23)n1C [Compound 574]	61.3
128	32.2	14.1	CCn1ncc(CN(C)C(=O)c2cc(-c3cc(-c4ncc[nH]4)n(C)n3)nc3ccc(COC)cc23)c1C [Compound 550]	247
124	14.6	6	CNCCNc1ccc(-c2cc(C(=O)N(C)Cc3cnc(C(C)C)n3C)c3cc(Cl)ccc3n2)nc1C [Compound 544]	42.5
76.3	45	13.7	CCn1ncc(CN(C)C(=O)c2cc(-c3cc(NCCN(C)C)cc(C)n3)nc3ccc(Cl)cc23)c1C [Compound 570]	30.1
58.2	19.1	6.5	CCc1ncc(CN(C)C(=O)c2cc(-c3ccc(NC4CN(C)C4)c(C)n3)nc3ccc(Cl)cc23)n1C [Compound 561]	22.8
53.5	6.92	2.4	CCn1ncc(CN(C)C(=O)c2cc(-c3cc(-c4ncc[nH]4)n(C)n3)nc3ccc(Cl)cc23)c1C [Compound 542]	56.6
49.7	13.4	6.3	CCn1ncc(CN(C)C(=O)c2nc(-c3cc(C)nc(N[C@@H]4CCNC4)c3)nc3ccc(Cl)cc23)c1C [Compound 552]	72.2
